Legend:
human α1 AGP = assay: Equilibrium dialysis with human α1 AGP; type: in vitro ADME; details: 1 µM, 0.1% AGP, pH 7.4, 37 °C, 4 h, n = 3
[1] = target: human serum albumin (HSA) (Homo sapiens, UniProt P02768); assay: Equilibrium dialysis with HSA; type: in vitro ADME; details: 1 µM, 4% HSA, pH 7.4, 37 °C, 4 h, n = 3
[2] = tested on: ABCA1 induction in human whole blood; assay: Human whole blood assay; type: cell-based; details: for improvement in hWBA potency compared to 5: ratio of hWBA EC50 values vs 5
[3] = after multiple days of dosing, limited therapeutic window; cited from earlier work

Chain of human serum albumin (HSA) (P02768 25-609): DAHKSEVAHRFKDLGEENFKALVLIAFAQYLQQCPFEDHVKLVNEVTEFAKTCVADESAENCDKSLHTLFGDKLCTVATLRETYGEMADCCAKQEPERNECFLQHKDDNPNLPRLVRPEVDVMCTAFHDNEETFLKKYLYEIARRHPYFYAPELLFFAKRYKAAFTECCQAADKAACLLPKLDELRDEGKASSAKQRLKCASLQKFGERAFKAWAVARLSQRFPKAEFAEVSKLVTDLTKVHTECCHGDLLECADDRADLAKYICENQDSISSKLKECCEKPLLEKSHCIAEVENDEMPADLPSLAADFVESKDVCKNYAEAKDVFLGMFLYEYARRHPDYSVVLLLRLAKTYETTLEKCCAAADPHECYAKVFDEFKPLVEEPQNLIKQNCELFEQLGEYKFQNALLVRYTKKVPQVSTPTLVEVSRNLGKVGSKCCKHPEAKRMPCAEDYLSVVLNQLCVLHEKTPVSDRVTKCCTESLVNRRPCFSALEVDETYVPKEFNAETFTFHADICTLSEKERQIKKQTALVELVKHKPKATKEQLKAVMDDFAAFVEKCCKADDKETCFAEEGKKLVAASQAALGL

SMILES	human α1 AGP (% bound) (human α1 AGP)	improvement in hWBA potency compared to 5 [2]	also measured
CC(C)(O)c1cn(-c2ccc(-c3cccc(S(C)(=O)=O)c3)cc2)c(C(C)(C)c2ccccc2Cl)n1 [Example 5]	99.9 ± 0.0%		HSA (% bound) [1]: 97.2 ± 0.3%
CC(C)(O)c1cn(-c2ccc(-c3cc(F)c(CO)c(S(C)(=O)=O)c3)cc2)c(C(C)(C)c2c(Cl)cccc2Cl)n1 [Example 12]			improvement in hWBA potency ([2]; 2,6-dichloro analogue vs 10): 3–4 fold
CC(C)(O)c1cn(-c2ccc(-c3cc(F)c(CO)c(S(C)(=O)=O)c3)cc2)c(C(C)(C)c2ccccc2Cl)n1 [Example 10]		20 fold	
CC(C)(O)c1cn(-c2ccc(-c3cc(F)c(CO)c(S(C)(=O)=O)c3)cc2F)c(C(C)(C)c2c(Cl)cccc2Cl)n1 [Example 15]			TGs and LDL-C in human trials [3]: elevated
CC(C)(O)c1cn(-c2ccc(-c3cccc(S(C)(=O)=O)c3)cc2)c(C(C)(C)c2c(Cl)cccc2Cl)n1 [Example 6]	99.6 ± 0.2%	3 fold	

Source: publication PMC5150697 (ACS Medicinal Chemistry Letters, 2016)
